Measurements as given in ChEMBL document CHEMBL4831477, “Structure-Enabled Discovery of Novel Macrocyclic Inhibitors Targeting Glutaminase 1 Allosteric Binding Site” (J Med Chem, 2021).
Converted amounts (≈) assume the structure as drawn. Values belong to the molecule of their own block, whether it stands above or below them.

Assays:
[1] = target: T1, Glutaminase kidney isoform, mitochondrial (Homo sapiens) (UniProt O94925)
T1 sequence (whole entry): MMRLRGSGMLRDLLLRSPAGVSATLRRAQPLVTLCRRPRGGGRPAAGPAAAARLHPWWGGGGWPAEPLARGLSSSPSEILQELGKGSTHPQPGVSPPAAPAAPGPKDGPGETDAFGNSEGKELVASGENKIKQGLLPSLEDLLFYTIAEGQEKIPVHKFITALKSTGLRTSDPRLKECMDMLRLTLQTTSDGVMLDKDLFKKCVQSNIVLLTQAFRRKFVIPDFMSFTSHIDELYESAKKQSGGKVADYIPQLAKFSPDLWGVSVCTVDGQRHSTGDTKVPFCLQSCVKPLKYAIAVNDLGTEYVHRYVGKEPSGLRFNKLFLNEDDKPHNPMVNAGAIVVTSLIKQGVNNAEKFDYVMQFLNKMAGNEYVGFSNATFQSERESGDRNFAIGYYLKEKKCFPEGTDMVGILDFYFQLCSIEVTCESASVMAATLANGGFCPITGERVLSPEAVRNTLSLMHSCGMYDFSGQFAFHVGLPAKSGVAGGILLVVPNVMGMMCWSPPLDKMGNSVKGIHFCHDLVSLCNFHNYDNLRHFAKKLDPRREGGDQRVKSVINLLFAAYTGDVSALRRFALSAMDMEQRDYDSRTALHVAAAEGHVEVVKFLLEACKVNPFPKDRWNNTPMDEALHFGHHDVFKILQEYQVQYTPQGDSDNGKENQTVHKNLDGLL
Description: Binding affinity to human GLS1 expressed in Escherichia coli strain BL21 (DE3) assessed as change in melting temperature by SYPRO orange dye based protein thermal shift assay

[2] = Distribution coefficient, logD of the compound at pH 7.4 by LC-MS based shake-flask method; format: physicochemical; conditions: octanol/water
[3] = Intrinsic aqueous solubility of compound at pH 7.4 by LC-MS based shake-flask method; format: physicochemical; conditions: read-out: Intrinsic_solubility
MDA-MB-436 = experiment: Antiproliferative activity against human MDA-MB-436 cells assessed as reduction in cell viability incubated for 72 hrs by MTT assay; format: functional, cell-based; conditions: MDA-MB-436, 72 h
HCT-116 [4] = experiment: Antiproliferative activity against human HCT116 cells assessed as reduction in cell viability incubated for 72 hrs by MTT assay; format: functional, cell-based; conditions: HCT-116, 72 h
[5] = target: T2, Glutaminase kidney isoform, mitochondrial (Homo sapiens, UniProt O94925); experiment: Inhibition of recombinant human GLS1 expressed in Escherichia coli strain BL21 (DE3) preincubated for 10 mins before glutamine addition and measured after 60 mins by bovine liver glutamate dehydrogenase based coupled enzyme assay
T2 sequence (O94925 whole entry): T1 sequence (whole entry)

[6] = Metabolic stability in human liver microsomes assessed as half life at 10 uM preincubated for 5 mins followed by NADPH addition by LC-MS/MS analysis; format: ADME, Microsome
[7] = AUC(0 to t) in Sprague-Dawley rat at 200 mg/kg, po measured upto 72 hrs by LC-MS/MS analysis; format: ADME, organism-based; design: route oral, dose 200 mg/kg, time <=72; conditions: in vivo
[8] = fCmax in BALB/c nude mouse plasma xenografted with human HCT-116 cells at 200 mg/kg, po administered twice daily for 28 days; format: ADME, organism-based; conditions: in vivo, 672 h, time 28 day
[9] = AUC(0 to infinity) in Sprague-Dawley rat at 5 mg/kg, iv measured upto 72 hrs by LC-MS/MS analysis; format: ADME, organism-based; design: route intravenous, dose 5 mg/kg, time <=72; conditions: in vivo, 72 h
[10] = AUC(0 to t) in Sprague-Dawley rat at 5 mg/kg, iv measured upto 72 hrs by LC-MS/MS analysis; format: ADME, organism-based; design: route intravenous, dose 5 mg/kg, time <=72; conditions: in vivo
[11] = Toxicity in BALB/c nude mouse xenografted with human HCT-116 cells assessed as tolerability at 200 mg/kg, po administered twice daily measured after 28 days; format: organism-based; conditions: in vivo, 672 h, time 28 day
[12] = Free plasma protein in mouse; format: ADME, cell-free
[13] = Oral bioavailability in Sprague-Dawley rat at 200 mg/kg measured upto 72 hrs by LC-MS/MS analysis; format: ADME, organism-based; conditions: in vivo
[14] = AUC(0 to infinity) in Sprague-Dawley rat at 200 mg/kg, po measured upto 72 hrs by LC-MS/MS analysis; format: ADME, organism-based; design: route oral, dose 200 mg/kg, time <=72; conditions: Sprague-Dawley, in vivo
[15] = Cmax in BALB/c nude mouse plasma xenografted with human HCT-116 cells at 200 mg/kg, po administered twice daily for 28 days; format: ADME, organism-based; design: route oral, time 28 day, dose 200 mg/kg
[16] = Half life in Sprague-Dawley rat at 200 mg/kg, po measured upto 72 hrs by LC-MS/MS analysis; format: ADME, organism-based; conditions: in vivo
[17] = Metabolic stability in mouse liver microsomes assessed as clearance at 10 uM preincubated for 5 mins followed by NADPH addition by LC-MS/MS analysis; format: ADME, Microsome; conditions: read-out: CLH
[18] = Half life in Sprague-Dawley rat at 5 mg/kg, iv measured upto 72 hrs by LC-MS/MS analysis; format: ADME, organism-based; conditions: in vivo
HCT-116 [19] = experiment: Antitumor activity against human HCT-116 cells xenografted in BALB/c nude mouse assessed as tumor growth inhibition at 200 mg/kg, po administered twice daily measured after 28 days; format: functional; conditions: time 28 day
[20] = Apparent volume of distribution in Sprague-Dawley rat at 5 mg/kg, iv measured upto 72 hrs by LC-MS/MS analysis; format: ADME, organism-based; conditions: in vivo, read-out: Vz
[21] = Toxicity in BALB/c nude mouse xenografted with human HCT-116 cells assessed as body weight loss at 200 mg/kg, po administered twice daily for 28 days and measured every 3 days; format: organism-based; conditions: in vivo, 672 h, time 28 day
[22] = Clearance in Sprague-Dawley rat at 5 mg/kg, iv measured upto 72 hrs by LC-MS/MS analysis; format: ADME, organism-based; conditions: in vivo, 5 mg/kg, 72 h
[23] = Apparent volume of distribution in Sprague-Dawley rat at 200 mg/kg, po measured upto 72 hrs by LC-MS/MS analysis; format: ADME, organism-based; conditions: in vivo
[24] = Clearance in Sprague-Dawley rat at 200 mg/kg, po measured upto 72 hrs by LC-MS/MS analysis; format: ADME, organism-based; conditions: Sprague-Dawley, in vivo
[25] = Metabolic stability in mouse liver microsomes assessed as half life at 10 uM preincubated for 5 mins followed by NADPH addition by LC-MS/MS analysis; format: ADME, Microsome
[26] = Cmax in Sprague-Dawley rat at 200 mg/kg, po measured upto 72 hrs by LC-MS/MS analysis; format: ADME, organism-based; design: route oral, dose 200 mg/kg, time <=72; conditions: in vivo
[27] = Metabolic stability in human liver microsomes assessed as clearance at 10 uM preincubated for 5 mins followed by NADPH addition by LC-MS/MS analysis; format: ADME, Microsome; conditions: read-out: CLH
[28] = Metabolic stability in human plasma assessed as compound remaining after 2 hrs by LC-MS/MS analysis; format: ADME, cell-free; conditions: read-out: Stability
[29] = Metabolic stability in mouse plasma assessed as compound remaining after 2 hrs by LC-MS/MS analysis; format: ADME, cell-free; conditions: read-out: Stability
HCT-116 [30] = experiment: Inhibition of colony formation in human HCT-116 cells incubated for 14 days by crystal violet staining based assay; format: functional, cell-based; conditions: dose 0.1-2 µM, time 14.0 day

Structure (SMILES): O=C1Cc2ccc(cc2)OCCCC/C=C/CCCCOc2ccc(cc2)CC(=O)Nc2nnc(s2)CCCCc2nnc(s2)N1
ΔTm [1]: 12.9 °C
logD ([2]; read-out: logD): 3.91
solubility thermodynamic [3]: 0.25 µg/mL (≈ 0.378 µM)
IC50 (MDA-MB-436): 2510 nM
IC50 (HCT-116 [4]): 1480 nM
IC50 [5]: 193 nM

Structure (SMILES): O=C1Cc2ccc(cc2)OCCC/C=C/CCCOc2ccc(cc2)CC(=O)Nc2nnc(s2)CCCCc2nnc(s2)N1
ΔTm [1]: 0.19 °C
logD ([2]; read-out: logD): 3.62
solubility thermodynamic [3]: 0.29 µg/mL (≈ 0.458 µM)
IC50 (MDA-MB-436): 38300 nM
IC50 (HCT-116 [4]): 16200 nM
IC50 [5]: 4700 nM

Structure (SMILES): O=C(Cc1cccc(OC(F)(F)F)c1)Nc1ccc(CCCCc2nnc(NC(=O)Cc3ccccn3)s2)nn1
logD [2]: 2.24
half-life at 10 µM [6]: 1.4 h
AUC(0-t) at 72 h [7]: 18900 ng·h/mL
fCmax [8]: 0.31 µM
AUC [9]: 2431 ng·h/mL
AUC(0-t) at 72 h [10]: 2380 ng·h/mL
Activity [11]: Non-Toxic
fraction unbound [12]: 0.103
bioavailability [13]: 19%
AUC(0-inf) [14]: 18900 ng·h/mL
Cmax [15]: 3.01 µM
half-life [16]: 3.2 h
microsomal CLint at 10 µM [17]: 12.3 µL/min/mg
half-life [18]: 3.7 h
TGI (HCT-116 [19]): 45%
Vd [20]: 26.1 L/kg
Activity [21]: Non-Toxic
IC50 (MDA-MB-436): 430 nM
CL [22]: 135 mL/min/kg
Vz [23]: 60.9 L/kg
CL/F [24]: 187 mL/min/kg
half-life at 10 µM [25]: 1.05 h
Cmax [26]: 1720 ng/mL
IC50 (HCT-116 [4]): 110 nM
microsomal CLint at 10 µM [27]: 9.7 µL/min/mg
remaining at 2 h [28]: 84%
remaining at 2 h [29]: 72%

Structure (SMILES): O=C1Cc2ccc(cc2)OCC/C=C/CCOc2ccc(cc2)CC(=O)Nc2nnc(s2)CCCCc2nnc(s2)N1
ΔTm [1]: 13.9 °C
logD ([2]; read-out: logD): 3.52
solubility thermodynamic [3]: 0.33 µg/mL (≈ 0.546 µM)
IC50 (MDA-MB-436): 1900 nM
inhibition (HCT-116 [30]): Dose-Dependent Effect
IC50 (HCT-116 [4]): 960 nM
IC50 [5]: 80 nM

Structure (SMILES): O=C(Cc1ccccc1)Nc1nnc(CCSCCc2nnc(NC(=O)Cc3ccccc3)s2)s1
logD ([2]; read-out: logD): 2.86
IC50 (MDA-MB-436): 5080 nM
IC50 (HCT-116 [4]): 3910 nM

Further lines, with some results ahead:

ΔTm [1]: 16.6 °C
logD ([2]; read-out: logD): 3.85
solubility thermodynamic [3]: 0.22 µg/mL (≈ 0.333 µM)
IC50 (MDA-MB-436): 6490 nM
IC50 (HCT-116 [4]): 7080 nM
IC50 [5]: 225 nM
Structure (SMILES): O=C1Cc2cccc(c2)OCCCC/C=C/CCCCOc2cccc(c2)CC(=O)NC2=NN=C(CCCCC3=NN=C(N1)S3)S2

ΔTm [1]: 18.3 °C
logD ([2]; read-out: logD): 3.48
solubility thermodynamic [3]: 1.62 µg/mL (≈ 2.58 µM)
IC50 (MDA-MB-436): 570 nM
IC50 (HCT-116 [4]): 190 nM
IC50 [5]: 28 nM
Structure (SMILES): O=C1Cc2cccc(c2)OCCC/C=C/CCCOc2cccc(c2)CC(=O)Nc2nnc(s2)CCCCc2ccc(nn2)N1
inhibition (HCT-116 [30]): Dose-Dependent Effect

ΔTm [1]: 16.7 °C
logD ([2]; read-out: logD): 3.49
solubility thermodynamic [3]: 0.25 µg/mL (≈ 0.395 µM)
IC50 (MDA-MB-436): 820 nM
IC50 (HCT-116 [4]): 510 nM
IC50 [5]: 82 nM
Structure (SMILES): O=C1Cc2cccc(c2)OCCC/C=C/CCCOc2cccc(c2)CC(=O)NC2=NN=C(CCCCC3=NN=C(N1)S3)S2

ΔTm [1]: 16.5 °C
logD ([2]; read-out: logD): 2.9
solubility thermodynamic [3]: 0.34 µg/mL (≈ 0.59 µM)
IC50 (MDA-MB-436): 510 nM
IC50 (HCT-116 [4]): 280 nM
IC50 [5]: 41 nM
Structure (SMILES): O=C1Cc2cccc(c2)OC/C=C/COc2cccc(c2)CC(=O)NC2=NN=C(CCCCC3=NN=C(N1)S3)S2
inhibition (HCT-116 [30]): Dose-Dependent Effect
